This note sets out measurements from patent publication US20020182594A1, “Chemomagnetic retrieval of CMV and CMV infected cells” (priority 2001, published 2002).

Assay [1] addresses T1, US28 (Human cytomegalovirus, UniProt P69332). The experiment in a line: Inhibition of binding of native chemokine ligands (fractalkine, eotaxin) to US28. More on the design: species or system human CMV (HCMV). To be noted: native chemokine ligands such as fractalkine and eotaxin, among others.
A further assay has as its system chemokine receptors. The assay can be described thus: Binding specificity among chemokine receptors tested.
Assay [2] addresses T1, US28. The assay can be described thus: Binding affinity of fractalkine to US28. More on the design: species or system human CMV (HCMV). Conditions: read-out: K1 (affinity of binding to US28).

T1 sequence (P69332 whole entry): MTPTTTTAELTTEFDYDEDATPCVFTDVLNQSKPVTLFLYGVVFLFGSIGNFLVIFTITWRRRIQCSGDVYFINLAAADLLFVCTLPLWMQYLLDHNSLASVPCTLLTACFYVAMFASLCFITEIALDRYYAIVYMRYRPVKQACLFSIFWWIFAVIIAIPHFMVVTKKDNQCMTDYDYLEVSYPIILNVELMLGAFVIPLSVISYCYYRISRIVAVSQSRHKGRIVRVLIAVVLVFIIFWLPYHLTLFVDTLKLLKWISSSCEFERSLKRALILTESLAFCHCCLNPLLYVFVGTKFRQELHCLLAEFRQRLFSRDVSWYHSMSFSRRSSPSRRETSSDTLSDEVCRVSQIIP

On to `CCN1CCC[C@H]1CNC(=O)c1c(OC)ccc(I)c1O` [S(−)-IBZM, S(−)-3-Iodo-2-hydroxy-6-methoxy-N[(1-ethyl-2-pyrrolidinyl)methyl]benzamide], for which the “inhibition of the binding of native chemokine ligands to US28” value on US28 [1] is reported as “effective inhibitor”. Moreover, in the assay with chemokine receptors, the “specificity of binding to US28 among all chemokine receptors tested” value is recorded as “bind specifically to US28”.

B1: fractalkine: the CX3C chemokine, expressed on certain endothelial cell surfaces and dendritic cells; native ligand of US28 (protein, UniProt P78423 25-397, looked up)
Fractalkine: QHHGVTKCNITCSKMTSKIPVALLIHYQQNQASCGKRAIILETRQHRLFCADPKEQWVKDAMQHLDRQAAALTRNGGTFEKQIGEVKPRTTPAAGGMDESVVLEPEATGESSSLEPTPSSQEAQRALGTSPELPTGVTGSSGTRLPPTPKAQDGGPVGTELFRVPPVSTAATWQSSAPHQPGPSLWAEAKTSEAPSTQDPSTQASTASSPAPEENAPSEGQRVWGQGQSPRPENSLEREEMGPVPAHTDAFQDWGPGSMAHVSVVPVSSEGTPSREPVASGSWTPKAEEPIHATMDPQRLGVLITPVPDAQAATRRQAVGLLAFLGLLFCLGVAMFTYQSLQGCPRKMAGEMAEGLRYIPRSCGSNSYVLVPV
With B1, in the assay with US28 [2], the Ki was ~0.05 nM.
